Laboratory results: ChEMBL document CHEMBL1201862, “PubChem BioAssay data set” (2004)
Active and inactive are the calls of the source.

Experiments:
[1] = target: T1, RNA-binding protein pos-1 (Caenorhabditis elegans, UniProt G5EF15); assay: inhibitors of POS-1/mex-3 RNA binding, dose response, biochemical, fluorescence polarization (AID 1964);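 further: purified POS-1 fused to maltose binding protein made in E. coli; potency of compounds blocking POS-1 binding to fluorescent RNA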
T1 sequence (G5EF15 whole entry): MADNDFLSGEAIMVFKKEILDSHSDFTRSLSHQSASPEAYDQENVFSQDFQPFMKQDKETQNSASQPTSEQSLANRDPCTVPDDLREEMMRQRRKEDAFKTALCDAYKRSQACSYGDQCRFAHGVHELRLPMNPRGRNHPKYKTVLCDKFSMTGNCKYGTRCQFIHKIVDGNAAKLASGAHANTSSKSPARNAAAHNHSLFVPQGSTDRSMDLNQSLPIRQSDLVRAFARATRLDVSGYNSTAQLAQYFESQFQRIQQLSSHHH

[2] = target: T2, Endoribonuclease toxin MazF (Escherichia coli K-12, UniProt P0AE70); assay: MazF endoribonuclease activators, SAR follow-up, biochemical, fluorescence, single-stranded RNA substrate (AID 588603); assay type: functional
T2 sequence (P0AE70 whole entry): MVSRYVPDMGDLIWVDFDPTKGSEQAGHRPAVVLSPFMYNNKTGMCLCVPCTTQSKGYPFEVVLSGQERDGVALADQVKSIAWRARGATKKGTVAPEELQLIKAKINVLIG

MEF = assay: SAR analysis of small molecule cytotoxicity of MazEF TA System activators in embryonic fibroblast (MEF) cells. [Related pubchem assays (depositor defined):AID504720, AID504743]; assay type: functional; details: Mus musculus
Genome polyprotein = Genome polyprotein (dengue virus type 2, UniProt P29990); assay: Dengue-2 NS5 methyltransferase inhibitors, primary screen, biochemical, confirmation dose response (AID 588689); assay type: functional
Sequence of Genome polyprotein (P29990 2492-3391 limits assumed): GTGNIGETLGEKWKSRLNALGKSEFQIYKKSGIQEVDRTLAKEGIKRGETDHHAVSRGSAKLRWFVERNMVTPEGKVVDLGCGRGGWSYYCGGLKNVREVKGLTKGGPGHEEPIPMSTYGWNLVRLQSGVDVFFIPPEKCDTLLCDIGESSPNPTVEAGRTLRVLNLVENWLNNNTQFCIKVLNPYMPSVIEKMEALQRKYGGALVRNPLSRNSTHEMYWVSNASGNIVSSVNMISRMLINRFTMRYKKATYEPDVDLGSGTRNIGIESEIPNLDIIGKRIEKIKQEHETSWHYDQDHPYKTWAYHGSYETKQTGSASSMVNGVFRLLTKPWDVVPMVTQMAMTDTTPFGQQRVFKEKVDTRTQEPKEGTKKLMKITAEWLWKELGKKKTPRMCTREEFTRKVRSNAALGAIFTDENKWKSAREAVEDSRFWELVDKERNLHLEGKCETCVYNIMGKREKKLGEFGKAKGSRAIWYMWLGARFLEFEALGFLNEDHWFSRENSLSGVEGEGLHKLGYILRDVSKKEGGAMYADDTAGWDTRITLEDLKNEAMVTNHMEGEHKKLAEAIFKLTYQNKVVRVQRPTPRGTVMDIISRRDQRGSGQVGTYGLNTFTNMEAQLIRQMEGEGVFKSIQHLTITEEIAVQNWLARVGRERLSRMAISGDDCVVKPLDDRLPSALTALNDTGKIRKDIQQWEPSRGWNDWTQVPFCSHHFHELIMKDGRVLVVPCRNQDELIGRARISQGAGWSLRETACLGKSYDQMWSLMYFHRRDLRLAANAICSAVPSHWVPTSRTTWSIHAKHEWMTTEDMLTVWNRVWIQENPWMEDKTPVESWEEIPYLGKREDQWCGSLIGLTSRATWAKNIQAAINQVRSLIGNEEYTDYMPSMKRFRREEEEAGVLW

[3] = target: T2, Endoribonuclease toxin MazF; assay: SAR analysis of small molecule activators of the MazEF TA System via a fluorescence-based single-stranded RNase assay counterscreen. [Related pubchem assays (depositor defined):AID504720, AID504743]; assay type: functional
[4] = target: T2, Endoribonuclease toxin MazF; assay: MazF toxin RNase activators, dose response, biochemical, fluorescence, single-stranded RNA substrate, uHTS hits (AID 588481); assay type: functional
[5] = target: T3, Zinc finger protein mex-5 (Caenorhabditis elegans, UniProt Q9XUB2); assay: MEX-5/TCR-2 RNA interaction inhibitors, dose response, biochemical, C. elegans, fluorescence polarization (AID 1960)
T3 sequence (Q9XUB2 whole entry): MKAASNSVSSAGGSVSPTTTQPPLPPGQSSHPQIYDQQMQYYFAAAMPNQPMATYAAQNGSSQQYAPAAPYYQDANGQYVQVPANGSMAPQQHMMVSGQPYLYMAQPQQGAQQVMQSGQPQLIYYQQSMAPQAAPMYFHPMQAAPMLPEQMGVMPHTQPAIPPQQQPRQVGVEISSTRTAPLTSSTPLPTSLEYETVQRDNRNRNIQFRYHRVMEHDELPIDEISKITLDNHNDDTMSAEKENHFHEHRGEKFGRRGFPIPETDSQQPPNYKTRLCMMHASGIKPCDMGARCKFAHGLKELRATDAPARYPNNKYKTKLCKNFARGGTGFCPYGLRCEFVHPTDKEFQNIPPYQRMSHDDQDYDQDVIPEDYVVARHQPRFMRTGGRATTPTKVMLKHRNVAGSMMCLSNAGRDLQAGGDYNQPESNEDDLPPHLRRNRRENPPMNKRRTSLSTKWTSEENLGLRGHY

[6] = target: T2, Endoribonuclease toxin MazF; assay: fluorescent RNA oligo signal without MazF, dose response, counter-screen for MazEF activator project, biochemical, fluorescence, single-stranded RNase substrate (AID 588502); assay type: functional
[7] = target: COUP transcription factor 2 (Homo sapiens, UniProt P24468); assay: Luminescence-based cell-based high throughput dose response assay to identify inhibitors of COUP-TFII (NR2F2).; assay type: functional;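 further: HEK293 cells transiently cotransfected with COUP-TFII expression vector and reporter; luciferase reporter luminescence driven by COUP-TFII from the pX2-168 reporter plasmid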
Sequence of COUP transcription factor 2 (P24468 whole entry): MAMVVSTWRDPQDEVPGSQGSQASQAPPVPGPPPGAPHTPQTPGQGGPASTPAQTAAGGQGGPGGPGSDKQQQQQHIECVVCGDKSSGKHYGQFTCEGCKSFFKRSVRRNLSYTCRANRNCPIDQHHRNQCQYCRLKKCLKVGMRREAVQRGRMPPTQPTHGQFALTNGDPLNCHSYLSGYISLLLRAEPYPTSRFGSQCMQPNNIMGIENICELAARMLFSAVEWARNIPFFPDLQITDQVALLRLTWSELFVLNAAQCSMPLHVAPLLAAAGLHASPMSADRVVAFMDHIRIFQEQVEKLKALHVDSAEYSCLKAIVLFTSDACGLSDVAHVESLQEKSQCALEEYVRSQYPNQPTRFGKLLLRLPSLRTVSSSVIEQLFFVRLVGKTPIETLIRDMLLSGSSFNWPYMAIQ

[8] = control 3'UTR Renilla luciferase suppression, dose response, counter-screen for Shn3 inhibitor project, cell-based, Clone20-Shn3RL, cherry-picked (AID 624133); assay type: functional
HEK293 = assay: inhibitors of LMP1-driven NF-kB reporter, dose response, cell-based, HEK293, luciferase, cherry-pick (AID 588343); assay type: functional; details: Homo sapiens
[9] = target: Latent membrane protein 1 (Human herpesvirus 4 (strain B95-8), UniProt P03230); assay: TES1-eGFP NF-kB reporter inhibition versus Tet-On dsRED, dose response, selectivity assay for LMP1 NF-kB inhibitor project, imaging, HEK293T, dual-color eGFP/dsRED, cherry-picks (AID 588398); assay type: functional, cell-based
Sequence of Latent membrane protein 1 (P03230 whole entry): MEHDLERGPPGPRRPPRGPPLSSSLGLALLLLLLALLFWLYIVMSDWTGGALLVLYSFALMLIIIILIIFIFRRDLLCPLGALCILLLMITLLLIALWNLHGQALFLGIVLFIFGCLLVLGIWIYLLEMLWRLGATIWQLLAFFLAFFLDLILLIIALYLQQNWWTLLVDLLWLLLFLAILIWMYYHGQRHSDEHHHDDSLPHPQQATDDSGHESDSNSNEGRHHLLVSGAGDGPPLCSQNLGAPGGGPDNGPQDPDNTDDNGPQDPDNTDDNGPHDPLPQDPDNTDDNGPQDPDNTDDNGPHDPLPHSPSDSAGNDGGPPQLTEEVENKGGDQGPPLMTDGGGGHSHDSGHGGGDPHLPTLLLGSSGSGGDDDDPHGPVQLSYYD

[10] = HepG2 cell cytotoxicity, dose response, cytotoxicity control for Shn3 inhibitor project, CellTiter-Glo, cherry-picked (AID 624134); assay type: functional, cell-based
[11] = Shn3 3'UTR reporter inhibitors, dose response, cell-based, Clone20 osteoblasts, firefly luciferase, cherry-picked (AID 624132); assay type: functional;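 further: firefly luciferase luminescence from reporter carrying the Shn3 3'UTR in osteoblasts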

Which results are given for `C=CCOc1cccc(C2C(C(=O)c3ccc(C)o3)=C(O)C(=O)N2c2nccs2)c1` (centres undefined)?
EC50 [1]: > 300 µM (inconclusive); EC50 [2]: 22.3 µM (inactive); CC50 (MEF): > 99 µM (inactive); IC50 (Genome polyprotein): 5.64 µM (active); EC50 [3]: 44.5 µM (inactive); EC50 [4]: 11.4 µM (active); EC50 [5]: 0.851 µM (active); EC50 [6]: > 99 µM (inactive)

Which IC50 [7] does the source give for `O=C(NC1CCCCCCC1)c1cc(COc2ccc3ncccc3c2)on1` here?
Its IC50 is 4.41 µM (active).

What about the AC50 [8] of the same molecule?
The AC50 was 11.8 µM (active).

And the AC50 (HEK293)?
Its AC50 is 39.6 µM (active).

And the AC50 [9]?
The AC50 was 60.1 µM (active).

What about the AC50 [10] of the same molecule?
The AC50 was 2.97 µM (active).

And the AC50 [11]?
The AC50 was 1.06 µM (active).
